Measured values from publication PMC3250956, “Functional characterization and analgesic effects of mixed cannabinoid receptor/T-type channel ligands” (Molecular Pain, 2011).
Like-named read-outs stand apart in the source and are kept apart here.

Columns and labels:
Rat CB1 = target: T1, Rat CB1 (Rattus norvegicus, UniProt P20272); assay: Radioligand competitive binding, [3H]CP55940, rat brain homogenate; settings: for Rat CB1 (%) primary radioligand competitive binding: ligand 10 μM, rat brain homogenates
T1 construct: membrane fractions prepared from rat brain homogenate expressing CB1 receptor; from tissue; host or cells: rat brain homogenate
Procedure: CB1 and CB2 radioligand binding data were obtained using National Institute of Mental Health (NIMH) Psychoactive Drug Screening Program (PDSP) resources as described earlier. Compounds were screened in a competitive binding experiment using, respectively, membrane fractions prepared from rat brain homogenate expressing CB1 receptor and HEK293 cells expressing the human CB2 receptor. Experiments were conducted at a range of different concentrations and in duplicate. The competition binding experiment for CB1 and CB2 was performed in 96 well plates containing Standard Binding Buffer (50 mM Tris HCl, 1 mM EDTA, 3 mM MgCl2, 5 mg/ml fatty acid-free BSA, pH 7.4). The radioligand was [^3H]CP55940, and the reference compound was CP55940. A solution of the compound to be tested was prepared as a 1 mg/ml stock in DMSO and then diluted in Standard Binding Buffer by serial dilution. Radioligand was diluted to five times the assay concentration in Standard Binding Buffer. Aliquots (50 μl) of radioligand were dispensed into the wells of a 96-well plate containing 100 μl of Standard Binding Buffer. Then, duplicate 50-μl aliquots of the test and reference compound dilutions were added. Finally, crude membrane fractions of cells were resuspended in 3 ml of chilled Standard Binding Buffer and homogenized by several passages through a 26 gauge needle, then 50 μl were dispensed into each well. The 250-μl reactions were incubated at room temperature for 1.5 hours, and then harvested by rapid filtration onto Whatman GF/B glass fiber filters pre-soaked with 0.3% polyethyleneimine using a 96-well Brandel harverster. Four rapid 500-μl washes were performed. Filters were placed in 6-ml scintillation tubes and allowed to dry overnight. Bound radioactivity was harvested onto 0.3% polyethyleneimine-treated, 96-well filter mats using a 96-well Filtermate harvester. The filter mats were dried, then scintillant was melted onto the filters and the radioactivity retained on the filters counted in a Microbeta scintillation counter. Raw data (dpm) representing total radioligand binding (i.e., specific + non-specific binding) were plotted as a function of the logarithm of the molar concentration of the competitor (i.e., test or reference compound). Non-linear regression of the normalized (i.e., percent radioligand binding compared to that observed in the absence of test or reference compound) raw data was performed in Prism 4.0 (GraphPad Software) using the built-in three parameter logistic model describing ligand competition binding to radioligand-labeled sites: y = bottom + [(top-bottom)/(1 + 10 × -logIC50)] where bottom equals the residual radioligand binding measured in the presence of 10 μM reference compound (i.e., non-specific binding) and top equals the total radioligand binding observed in the absence of competitor. The log IC50 (i.e., the log of the ligand concentration that reduces radioligand binding by 50%) is thus estimated from the data and used to obtain the Ki by applying the Cheng-Prusoff approximation: Ki = IC50/(1 + [ligand]/KD) where [ligand] equals the assay radioligand concentration and KD equals the affinity constant of the radioligand for the target receptor.

Cav3.2 = target: T2, Cav3.2 (Homo sapiens, UniProt O95180); assay: Whole-cell patch-clamp on Cav3.2: concentration-response and steady-state inactivation; assay type: cell-based; settings: 10 μM; for half-inactivation potential after treatment with drug: n = 4
T2 construct: expressed in transfected cells; host or cells: tsA-201 cells, transient calcium phosphate transfection
Procedure: To further characterize compounds NMP-4, NMP-7 and NMP-144, we investigated the concentration dependence of their action on Cav3.2, the major T-type calcium channel subtype implicated in the afferent pain pathway (Figure 2B, C).
To determine whether these compounds also affected inactivated channels, we recorded steady-state inactivation curves prior and after application of NMP-4, NMP-7 or NMP-144.
Whole-cell currents were recorded from tsa-201 cells 2-4 days after transfection. The external recording solution contained (in mM): BaCl2 (20), MgCl2 (1), HEPES (10), TEA-Cl (40), CsCl (65), d-glucose (10) and pH 7.2 adjusted with TEA-OH. The internal pipette solution was composed of (in mM) Cs-methanesulfonate (108), MgCl2 (4), EGTA (9), HEPES (9) and pH 7.2 adjusted with CsOH. The internal solution was supplemented with 0.6 mM GTP (sodium salt) and 2 mM ATP (tris salt), which were added directly to the internal solution immediately prior to use. Pipettes with a resistance of 2~5 MΩ when filled with internal solution were used for recording. Currents were elicited from a holding potential of -100 mV and were measured by conventional whole-cell patch clamp using an Axopatch 200B amplifier in combination with Clampex 9.2 software (Axon Instruments, Foster City, CA). Data were filtered at 1 kHz (8-pole Bessel) and digitized at 10 kHz with a Digidata 1320 (Axon Instruments, Foster City, CA). Series resistance were compensated by 85% in all experiments. An online P/4 programme was used to subtract the leak currents. Drugs were dissolved in DMSO at the following stock concentrations: 20 mM for NMP-4 and NMP-7, and 10 mM for NMP-139, NMP-140, NMP-141 and NMP-144. Prior to the experiment, drugs were diluted into external recording solution with a final DMSO concentration no higher than 0.3%. DMSO was also included in the control solution. Drug delivery was controlled by a Valvelink8.2 fast perfusion system (Automate Scientific Inc., Berkeley, CA). The perfusion tip was positioned a few hundred microns from the cell and kept as constant as possible throughout the experiments. Electrophysiological data were analyzed using Clampfit 9.2 (Axon Instruments, Foster City, CA) and GraphPad Prism 5 software (GraphPad Software Inc., San Diego, CA). […] Steady-state inactivation curves were fitted using the Boltzmann equation: I = 1/(1 + e ^(V-Vh)/k), where Vh is the half inactivating potential and k is the slope factor.

T1 sequence (P20272 whole entry): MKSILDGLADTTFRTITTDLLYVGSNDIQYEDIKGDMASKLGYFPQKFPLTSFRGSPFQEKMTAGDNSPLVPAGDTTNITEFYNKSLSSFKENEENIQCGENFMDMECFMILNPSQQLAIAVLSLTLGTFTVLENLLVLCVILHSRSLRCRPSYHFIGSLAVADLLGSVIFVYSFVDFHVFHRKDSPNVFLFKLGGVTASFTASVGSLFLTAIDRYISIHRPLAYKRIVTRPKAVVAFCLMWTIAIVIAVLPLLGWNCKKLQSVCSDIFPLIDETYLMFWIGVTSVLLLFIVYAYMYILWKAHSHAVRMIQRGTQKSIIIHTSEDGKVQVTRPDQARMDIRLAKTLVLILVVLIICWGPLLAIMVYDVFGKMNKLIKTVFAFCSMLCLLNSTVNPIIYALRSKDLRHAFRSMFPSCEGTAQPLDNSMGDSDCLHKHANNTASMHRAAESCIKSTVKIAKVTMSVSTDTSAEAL
T2 sequence (O95180 whole entry): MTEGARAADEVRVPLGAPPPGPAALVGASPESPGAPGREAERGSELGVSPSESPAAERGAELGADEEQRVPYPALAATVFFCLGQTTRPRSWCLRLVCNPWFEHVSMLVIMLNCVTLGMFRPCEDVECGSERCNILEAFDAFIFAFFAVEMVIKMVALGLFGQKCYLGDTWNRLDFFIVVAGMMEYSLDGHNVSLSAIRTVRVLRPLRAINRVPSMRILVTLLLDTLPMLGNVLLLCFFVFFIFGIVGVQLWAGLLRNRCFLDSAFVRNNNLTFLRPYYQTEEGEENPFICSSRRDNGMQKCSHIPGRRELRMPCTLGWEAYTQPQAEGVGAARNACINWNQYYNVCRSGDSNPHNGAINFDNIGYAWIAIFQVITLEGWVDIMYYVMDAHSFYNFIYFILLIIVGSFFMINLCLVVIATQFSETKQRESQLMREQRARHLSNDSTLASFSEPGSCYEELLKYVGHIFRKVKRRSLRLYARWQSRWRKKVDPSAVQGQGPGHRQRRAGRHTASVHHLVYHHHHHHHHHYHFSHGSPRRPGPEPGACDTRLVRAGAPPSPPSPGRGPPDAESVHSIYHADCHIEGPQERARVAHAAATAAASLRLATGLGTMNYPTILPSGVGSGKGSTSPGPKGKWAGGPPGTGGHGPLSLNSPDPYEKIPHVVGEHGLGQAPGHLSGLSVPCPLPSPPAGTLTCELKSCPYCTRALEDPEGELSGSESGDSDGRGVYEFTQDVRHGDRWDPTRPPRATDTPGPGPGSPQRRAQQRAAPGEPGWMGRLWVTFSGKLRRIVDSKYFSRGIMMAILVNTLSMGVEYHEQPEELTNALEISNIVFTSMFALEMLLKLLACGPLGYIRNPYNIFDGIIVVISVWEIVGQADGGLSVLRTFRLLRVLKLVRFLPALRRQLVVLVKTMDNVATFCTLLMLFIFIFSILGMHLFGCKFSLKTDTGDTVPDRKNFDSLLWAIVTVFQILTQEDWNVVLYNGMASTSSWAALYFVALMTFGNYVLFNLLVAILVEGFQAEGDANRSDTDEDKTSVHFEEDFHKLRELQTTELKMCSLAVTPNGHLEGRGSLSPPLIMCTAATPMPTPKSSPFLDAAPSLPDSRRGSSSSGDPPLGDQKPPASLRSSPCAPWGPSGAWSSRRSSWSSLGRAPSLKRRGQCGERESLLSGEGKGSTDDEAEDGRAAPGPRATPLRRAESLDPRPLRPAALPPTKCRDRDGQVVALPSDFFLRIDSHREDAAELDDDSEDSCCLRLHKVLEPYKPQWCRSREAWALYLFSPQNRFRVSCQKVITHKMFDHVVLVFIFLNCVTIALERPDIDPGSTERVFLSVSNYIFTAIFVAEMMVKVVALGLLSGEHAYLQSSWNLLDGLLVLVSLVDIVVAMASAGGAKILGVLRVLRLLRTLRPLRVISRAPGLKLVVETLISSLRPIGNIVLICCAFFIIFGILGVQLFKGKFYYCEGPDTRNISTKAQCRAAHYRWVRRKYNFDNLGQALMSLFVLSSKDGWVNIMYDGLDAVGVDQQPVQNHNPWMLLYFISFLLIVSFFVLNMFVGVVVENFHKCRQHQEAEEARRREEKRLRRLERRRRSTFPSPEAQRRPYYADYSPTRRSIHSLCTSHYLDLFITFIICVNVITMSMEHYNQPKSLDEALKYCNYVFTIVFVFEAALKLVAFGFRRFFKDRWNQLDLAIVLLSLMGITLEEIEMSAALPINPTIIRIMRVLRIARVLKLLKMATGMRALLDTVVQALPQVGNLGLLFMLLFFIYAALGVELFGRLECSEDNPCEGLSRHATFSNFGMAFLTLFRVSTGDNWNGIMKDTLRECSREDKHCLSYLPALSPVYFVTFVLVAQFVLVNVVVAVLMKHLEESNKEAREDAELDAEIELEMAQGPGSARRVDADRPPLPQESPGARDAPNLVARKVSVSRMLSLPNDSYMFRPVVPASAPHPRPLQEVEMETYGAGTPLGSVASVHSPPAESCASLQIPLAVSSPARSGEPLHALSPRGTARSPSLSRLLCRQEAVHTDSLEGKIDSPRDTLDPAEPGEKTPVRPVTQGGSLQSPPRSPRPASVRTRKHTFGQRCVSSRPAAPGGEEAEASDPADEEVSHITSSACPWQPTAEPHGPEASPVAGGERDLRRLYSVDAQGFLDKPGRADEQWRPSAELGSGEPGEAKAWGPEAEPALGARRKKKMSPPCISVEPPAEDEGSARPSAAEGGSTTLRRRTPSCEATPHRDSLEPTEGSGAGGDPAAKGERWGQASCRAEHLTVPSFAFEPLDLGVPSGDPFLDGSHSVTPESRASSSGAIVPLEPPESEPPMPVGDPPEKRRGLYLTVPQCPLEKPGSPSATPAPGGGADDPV

Compound | Ki (Rat CB1; NA: not active at 1 μM, read-out: Mean Ki Rat CB1) [nM] | Rat CB1 (%) primary radioligand competitive binding (Rat CB1) [%] | hyperpolarizing shift in the half inactivation potential of Cav3.2 channels (Cav3.2) | half-inactivation potential after treatment with drug (Cav3.2) [mV] | Ki (Rat CB1) [nM]
CCCCCn1c2ccc(C(=O)N3CCCCC3)cc2c2ccc(OC)cc21 [NMP-4] | 12.8 ± 1.8 | 99.3 | 20 mV | -72.9 ± 4.7 | –
CCCCCn1c2c(c3ccc(OC)cc31)CN(C(=O)c1ccccc1)CC2 [NMP-144] | – | 67.4 | did not significantly affect voltage-dependent inactivation | -55.8 ± 2.2 | 1140 ± 264
